According to patent US20150183846A1, “HUMAN FUSION PROTEINS COMPRISING SINGLE CHAIN TNFALPHA AND TARGETING DOMAINS” (Scil Proteins GmbH, priority 2012, published 2015):
Entries after “also recorded” stand apart in the source; their conditions may differ.

Experiments:
[1] = In vivo toxicity study in naive CD1 mice, single intravenous dose; conditions: i.v., mTNFalpha 470 μg/kg equimolar to 650 μg/kg 64177
Experimental: Two groups of 3 male and 3 female mice for each treatment dose were recruited. One group of 3 male and 3 female mice for each treatment dose was sacrificed 24 h after the intravenous administration to obtain information on acute TNFalpha mediated effects. […] Parameters that were analyzed are: clinical signs (local tolerance, systemic tolerance, mortality, behavior, external appearance, faeces), body weight, body temperature, food consumption, hematology, clinical chemistry, macroscopic post mortem findings, organ weights and histopathology of dedicated organs.

NHDF cells = test: Binding (staining) on vital NHDF cells; assay type: cell-based, human; conditions: NHDF cells (low ED-B), up to 10 nM
Experimental: (§1) ED-B is expressed in tumors and the matrix on embryonic cells. The binding of the cancer target-binding protein fused to scTNFalpha to the matrix of cell culture cells was compared to the binding of the control and non-targeting domain protein fused to scTNFalpha (64179). Different cell culture cells were analyzed, including normal human fetal lung fibroblast cells having high expression levels of ED-B (Wi38 cells), and normal human dermal fibroblasts having low level of ED-B (NHDF). To analyze the in vitro binding, 64177, 83563, 83564 and 64179 were investigated on vital Wi38 cells.
(§2) Fusion proteins (single concentration of 1, 5 and 10 nM) or control protein 64179 (1, 5 and 10 nM) were incubated (1 h, 37° C.) with Wi38 and NHDF cells (60,000 cells/ml; from ATCC), followed by fixation with methanol, blocking (5% Horse serum/PBS); incubation with an anti-TNFalpha-antibody (Peprotech 500-P64, 1:500) and additionally with a secondary Alexa488 conjugated antibody (obtained from Invitrogen A11008, 1:1000). The nuclei were stained with DAPI.

F9-tumor tissue = test: Binding on F9 teratocarcinoma tumor slices; set-up: species or system mouse
Experimental: ED-B accumulates around neovascular structures, like tumor blood vessels (Tarli et al., 1999, Blood 94: 192-198). Different concentrations of fusion proteins were compared with respect to ED-B target binding on F9 teratocarcinoma slides. Slices of a thickness of 6 μm were fixed with ice cold absolute acetone. After blocking with 5% horse serum, slices were incubated with 1, 5 and 10 nM of fusion proteins 64177, 83563, 83564 and the non-ED-B targeted protein 64179, respectively. Fusion proteins were probed by anti-TNFalpha-antibody (Peprotech 500-P64, 1:500) and additional with a secondary Alexa488 conjugated antibody (Invitrogen, A11008, 1:1000). CD31 (PECAM-1) is a widely used endothelial cell marker. Therefore, vessels were stained by use of an anti-mouse CD31-antibody (10 μg/ml; Abcam, ab56299) and an Alexa594-conjugated secondary antibody.

L929 cells = test: L929 apoptosis (cytotoxicity) assay of TNFalpha activity; assay type: cell-based; conditions: actinomycin D sensitized cells, 24 h
Description: The physiological TNFalpha-activity of an Affilin-scTNF-fusion protein has been determined using the L929 apoptosis assay (Flick et al., 1984 J. Immunol. Methods. 68:167-175). In this assay, the effector part of the fusion protein (scTNFalpha, three soluble TNFalpha monomers connected via peptide linkers) efficiently stimulates cell death in actinomycin D sensitized cells at EC50 values in the picomolar range.
Cells were resuspended in suitable medium containing FBS and antibiotics. A cell suspension of a density of 3.5×10^5 cells/ml in medium containing 2% FCS was seeded into the wells of a 96 well standard cell culture plate. After incubation, the culture medium was removed and medium containing 4% FBS, Actinomycin D and antibiotics was added to each well. […] After a further incubation of 24 h, the metabolic activity as a measure of cell survival was determined using WST-1 reagent (Roche). […] The quantitative evaluation is based on the relative potency against a mTNFalpha-standard.
In this embodiment, an L929 assay was used as activity assay versus mouse TNFalpha as internal standard (mTNFalpha in the figure). […] Potency has been determined in several independent assays and is determined by parallel line method with PLA2.0 software relative to the internal control mTNFalpha. […]

MDA-MB 231 tumor = test: In vivo efficacy study in breast cancer (MDA-MB 231) tumor bearing mice, combination with Lipodox; set-up: species or system mouse
Description: The efficacy study is intended to analyze the effect of targeted fusion protein 83564 combined with a chemotherapeutic on the tumor size in a breast cancer model. As model system for the in vivo efficacy study, the breast cancer cell line MDA-MB 231 (ATCC® HTB-26™; patient derived model, obtained from ATCC) was used. Cells were implanted subcutaneously in the left flank of female immunodeficient NMRI nu/nu mice from Harlan. For this study, Lipodox was used as exemplary cytotoxic drug; any other cytotoxic agents could be used instead. The chemotherapeutic Lipodox from Sun Pharma Global FZE is composed of doxorubicin hydrochloride encapsulated in long circulating pegylated liposomes. It is indicated as monotherapy for the treatment of metastatic breast cancer with increased cardiac risk.
In order to show the efficacy of Affilin-scTNFalpha-fusion protein 83564, mice carrying an MDA-MB 231 tumor with an initial size between 50 mm^3 and 200 mm^3 were intravenously treated with 75 μg/kg/day 83564 combined with Lipodox at a dose of 1.5 mg/kg/day (closed squares in FIG. 8). As control substance, 75 μg/kg/day 64179 (Affilin-scTNFalpha-fusion protein without targeting) combined with Lipodox at a dose of 1.5 mg/kg/day was injected intravenously into separate mice (closed circles in FIG. 8). […] During the whole efficacy study, the relative tumor volume was analyzed.

Wi38 cells = test: Binding (staining) on vital Wi38 fibroblast cells; assay type: cell-based, human; conditions: Wi38 cells (high ED-B), up to 10 nM, anti-TNFalpha-antibody detection
Experimental: as §1, §2

Q: For “mTNFalpha: murine recombinant TNFalpha used as internal standard and reference item [reference compound]”, which “incidence and/or severity of toxic effects, mTNFalpha- versus 64177-treated animals” value [1] is on record?
A: generally more pronounced

Q: For “64179: control fusion protein of a non-binding ubiquitin dimer (Ub2) and mouse scTNFalpha (SEQ ID NO: 16) [compound 64179, reference compound]”, which “staining on vital NHDF cells” value (NHDF cells) is on record?
A: not detectable

Q: What about the “accumulation close to F9-tumor vessels (co-staining with anti-CD31)” value (F9-tumor tissue; 1 nM fusion protein) of the same substance?
A: no accumulation in F9-tumor vessels

Q: And the “binding on F9-tumor tissue slices” value (F9-tumor tissue; 1 nM, 5 nM and 10 nM)?
A: not detected

Q: What about the “activity of the scTNFalpha part relative to mouse TNFalpha internal standard” value (L929 cells) of the same substance?
A: at least the same activity compared to the mouse TNFalpha

Q: And the “relative tumor volume at day 28” value (MDA-MB 231 tumor; 75 μg/kg/day fusion protein i.v. combined with Lipodox 1.5 mg/kg/day)?
A: 651 mm^3

Q: What about the “effect on tumor growth compared with the other groups” value (MDA-MB 231 tumor; fusion protein combined with Lipodox 1.5 mg/kg/day) of the same substance?
A: had the effect on growth of breast cancer as Lipodox alone

Q: What about the “staining of ED-B on vital Wi38 cells” value (Wi38 cells) of the same substance?
A: No unspecific staining; also recorded: not detectable
